Test system: M. catarrhalis A894
Experiment: Minimal inhibitory concentration (MIC), microdilution method in cation-adjusted Mueller-Hinton Broth (CLSI M7-A7)
Format: cell-based
Conditions: Moraxella catarrhalis, strain A894
Protocol: Minimal inhibitory concentrations (MICs; mg/1) were determined in cation-adjusted Mueller-Hinton Broth by a microdilution method following the description given in “Methods for Dilution Antimicrobial Susceptibility Tests for Bacteria that Grow Aerobically”, Approved standard, 7th ed., Clinical and Laboratory Standards Institute (CLSI) Document M7-A7, Wayne, Pa., USA, 2006.

Compound	MIC [µg/mL]
O=C1COc2ccc(N3C[C@H](CCNCC4Cn5c(=O)ccc6ccc(F)c4c65)OC3=O)cc2N1 (mixture of isomers) [Example 1, (1RS)-9-fluoro-1-({2-[(S)-2-oxo-3-(3-oxo-3,4-dihydro-2H-benzo[1,4]oxazin-6-yl)-oxazolidin-5-yl]-ethylamino}-methyl)-1,2-dihydro-pyrrolo[3,2,1-ij]quinolin-4-one]	≤ 0.031
O=C1COc2ccc(N3C[C@@H](CCNCC4Cn5c(=O)ccc6ccc(F)c4c65)OC3=O)cc2N1 (mixture of isomers) [Example 2, (1RS)-9-fluoro-1-({2-[(R)-2-oxo-3-(3-oxo-3,4-dihydro-2H-benzo[1,4]oxazin-6-yl)-oxazolidin-5-yl]-ethylamino}-methyl)-1,2-dihydro-pyrrolo[3,2,1-ij]quinolin-4-one]	≤ 0.031
O=C1CSc2ccc(N3C[C@@H](CCNCC4Cn5c(=O)ccc6ccc(F)c4c65)OC3=O)cc2N1 (mixture of isomers) [Example 3, (1RS)-9-fluoro-1-({2-[(R)-2-oxo-3-(3-oxo-3,4-dihydro-2H-benzo[1,4]thiazin-6-yl)-oxazolidin-5-yl]-ethylamino}-methyl)-1,2-dihydro-pyrrolo[3,2,1-ij]quinolin-4-one]	≤ 0.031
O=C1CSc2ccc(N3C[C@H](CCNCC4Cn5c(=O)ccc6ccc(F)c4c65)OC3=O)cc2N1 (mixture of isomers) [Example 4, (1RS)-9-fluoro-1-({2-[(S)-2-oxo-3-(3-oxo-3,4-dihydro-2H-benzo[1,4]thiazin-6-yl)-oxazolidin-5-yl]-ethylamino}-methyl)-1,2-dihydro-pyrrolo[3,2,1-ij]quinolin-4-one]	≤ 0.031
O=C1CSc2ccc(N3C[C@@H](CNCC4Cn5c(=O)ccc6ccc(F)c4c65)OC3=O)cc2N1 (mixture of isomers) [Example 5, (1RS)-9-fluoro-1-({[(R)-2-oxo-3-(3-oxo-3,4-dihydro-2H-benzo[1,4]thiazin-6-yl)-oxazolidin-5-ylmethyl]-amino}-methyl)-1,2-dihydro-pyrrolo[3,2,1-ij]quinolin-4-one]	≤ 0.031
O=C1O[C@H](CNCCC2Cn3c(=O)ccc4ccc(F)c2c43)CN1c1ccc2c(c1)OCCO2 (mixture of isomers) [Example 7, (1RS)-1-(2-{[(R)-3-(2,3-dihydro-benzo[1,4]dioxin-6-yl)-2-oxo-oxazolidin-5-ylmethyl]-amino}-ethyl)-9-fluoro-1,2-dihydro-pyrrolo[3,2,1-ij]quinolin-4-one]	≤ 0.031
O=C1CSc2ccc(N3C[C@H](CNCCC4Cn5c(=O)ccc6ccc(F)c4c65)OC3=O)cc2N1 (mixture of isomers) [Example 8, (1RS)-9-fluoro-1-(2-{[(S)-2-oxo-3-(3-oxo-3,4-dihydro-2H-benzo[1,4]thiazin-6-yl)-oxazolidin-5-ylmethyl]-amino}-ethyl)-1,2-dihydro-pyrrolo[3,2,1-ij]quinolin-4-one]	≤ 0.031
O=C1COc2ccc(N3C[C@@H](CNCCC4Cn5c(=O)ccc6ccc(F)c4c65)OC3=O)cc2N1 (mixture of isomers) [Example 9, (1RS)-9-fluoro-1-(2-{[(R)-2-oxo-3-(3-oxo-3,4-dihydro-2H-benzo[1,4]oxazin-6-yl)-oxazolidin-5-ylmethyl]-amino}-ethyl)-1,2-dihydro-pyrrolo[3,2,1-ij]quinolin-4-one]	≤ 0.031
O=C1CSc2ccc(N3C[C@@H](CNCCC4Cn5c(=O)ccc6ccc(F)c4c65)OC3=O)cc2N1 (mixture of isomers) [Example 10, (1RS)-9-fluoro-1-(2-{[(R)-2-oxo-3-(3-oxo-3,4-dihydro-2H-benzo[1,4]thiazin-6-yl)-oxazolidin-5-ylmethyl]-amino}-ethyl)-1,2-dihydro-pyrrolo[3,2,1-ij]quinolin-4-one]	≤ 0.031
Cc1ccc(N2C[C@@H](CNCCC3Cn4c(=O)ccc5ccc(F)c3c54)OC2=O)cc1F (mixture of isomers) [Example 11, (1RS)-9-fluoro-1-(2-{[(R)-3-(3-fluoro-4-methyl-phenyl)-2-oxo-oxazolidin-5-ylmethyl]-amino}-ethyl)-1,2-dihydro-pyrrolo[3,2,1-ij]quinolin-4-one]	0.063

Source: patent US9822114B2, “Tricyclic oxazolidinone antibiotic compounds” (Idorsia Pharmaceuticals Ltd, priority 2008, dated 2017)
